Earlier results on one compound are cited in PubChem BioAssay AID1259409 (Chemical Carcinogenesis Research Information System (CCRIS), 2018).

“And” between values parts separate entries of the source, which are not always exact repeats. Equal values may be shown once.

The test system of this data set is rodent chemically induced tumor inhibition, incidence and multiplicity. The data set can be described thus: CCRIS tumor inhibitor studies. The settings on record: Dose [Inhibitor]: 0.

`N#C[Se]Cc1ccc(C[Se]C#N)cc1`: the “tumour outcome (control, treated, inhibition, significance)” value is 90%, 20% (78% reduction), p<0.001 and 96%, 68% (30% reduction), p<0.01 (Carcinogen: 4(Methylnitrosamino)-1-(3-pyridyl)-1-butanone (NNK) (62339-61-1), 10 ppm as Se in diet, wks 6 to 32, study duration 26 wk, Route [Inhibitor]: Oral, Species: Mouse, Strain/Sex: A/J / Female, Target Tissue: Type of Lesion: Lung: Tumor, Dose [Carcinogen]: 3 umol once a wk for 8 wk beginning at wk 6 (total of 24 umol/mouse), study duration 26 wk); 100%, 100%, 0%, not significant (Carcinogen: 4-(METHYLNITROSAMINO)-1-(3-PYRIDYL)-1-BUTANONE, 64091-91-4, 0.0005% IN DIET FOR 17 WK BEGINNING 1 WK PRIOR TO CARCINOGEN DOSE (STUDY DURATION: 17 WK), Route [Inhibitor]: ORAL, Species: MOUSE, Strain/Sex: STRAIN-A/FEMALE, Target Tissue: Type of Lesion: LUNG: ADENOMA, Dose [Carcinogen]: 10 UMOL IN 0.1 ML SALINE ONCE, Promoter: NONE USED); 100%, 100%, 0%, not significant (Carcinogen: 4-(METHYLNITROSAMINO)-1-(3-PYRIDYL)-1-BUTANONE, 64091-91-4, 5 PPM IN DIET BEGINNING 1 WK PRIOR TO CARCINOGEN TREATMENT AND CONTINUING FOR 16 WK POST CARCINOGEN TREATMENT (STUDY, Route [Inhibitor]: ORAL, Species: MOUSE, Strain/Sex: STRAIN-A/FEMALE, Target Tissue: Type of Lesion: LUNG: ADENOMA, Dose [Carcinogen]: 10 UMOL IN 0.1 ML SALINE, Promoter: NONE USED); 100%, 80%, 20%, not significant (Carcinogen: 4-(METHYLNITROSAMINO)-1-(3-PYRIDYL)-1-BUTANONE, 64091-91-4, 7.5 PPM IN DIET FOR 3 WK BEGINNING 1 WK PRIOR TO CARCINOGEN DOSE (STUDY DURATION: 18 WK), Route [Inhibitor]: ORAL, Species: MOUSE, Strain/Sex: STRAIN-A/FEMALE, Target Tissue: Type of Lesion: LUNG: TUMOR, Dose [Carcinogen]: 10 UMOL IN 0.1 ML SALINE ONCE, Promoter: NONE USED); 100%, 96%, 4%, not significant (Carcinogen: 4-(METHYLNITROSAMINO)-1-(3-PYRIDYL)-1-BUTANONE, 64091-91-4, 7.5 PPM IN DIET FOR 15 WK BEGINNING 1 WK POST CARCINOGEN DOSE (STUDY DURATION: 18 WK), Route [Inhibitor]: ORAL, Species: MOUSE, Strain/Sex: STRAIN-A/FEMALE, Target Tissue: Type of Lesion: LUNG: TUMOR, Dose [Carcinogen]: 10 UMOL IN 0.1 ML SALINE ONCE, Promoter: NONE USED); 100%, 90%, 10%, not significant (Carcinogen: 4-(METHYLNITROSAMINO)-1-(3-PYRIDYL)-1-BUTANONE, 64091-91-4, 10 PPM IN DIET BEGINNING 1 WK PRIOR TO CARCINOGEN TREATMENT AND CONTINUING FOR 16 WK POST CARCINOGEN TREATMENT (STUDY, Route [Inhibitor]: ORAL, Species: MOUSE, Strain/Sex: STRAIN-A/FEMALE, Target Tissue: Type of Lesion: LUNG: ADENOMA, Dose [Carcinogen]: 10 UMOL IN 0.1 ML SALINE, Promoter: NONE USED). Moreover, the “tumour outcome (control, treated, inhibition, significance)” value is 100%, 85%, 15%, not significant (Carcinogen: 4-(METHYLNITROSAMINO)-1-(3-PYRIDYL)-1-BUTANONE, 64091-91-4, 15 PPM IN DIET BEGINNING 1 WK PRIOR TO CARCINOGEN TREATMENT AND CONTINUING FOR 16 WK POST CARCINOGEN TREATMENT (STUDY, Route [Inhibitor]: ORAL, Species: MOUSE, Strain/Sex: STRAIN-A/FEMALE, Target Tissue: Type of Lesion: LUNG: ADENOMA, Dose [Carcinogen]: 10 UMOL IN 0.1 ML SALINE, Promoter: NONE USED); 100%, 80%, 20%, not significant (Carcinogen: 4-(METHYLNITROSAMINO)-1-(3-PYRIDYL)-1-BUTANONE, 64091-91-4, 15 PPM IN DIET FOR 3 WK BEGINNING 2 WK PRIOR TO CARCINOGEN DOSE (STUDY DURATION: 18 WK), Route [Inhibitor]: ORAL, Species: MOUSE, Strain/Sex: STRAIN-A/FEMALE, Target Tissue: Type of Lesion: LUNG: TUMOR, Dose [Carcinogen]: 10 UMOL IN 0.1 ML SALINE ONCE, Promoter: NONE USED); 100%, 96%, 4%, not significant (Carcinogen: 4-(METHYLNITROSAMINO)-1-(3-PYRIDYL)-1-BUTANONE, 64091-91-4, 15 PPM IN DIET FOR 15 WK BEGINNING 1 WK POST CARCINOGEN DOSE (STUDY DURATION: 18 WK), Route [Inhibitor]: ORAL, Species: MOUSE, Strain/Sex: STRAIN-A/FEMALE, Target Tissue: Type of Lesion: LUNG: TUMOR, Dose [Carcinogen]: 10 UMOL IN 0.1 ML SALINE ONCE, Promoter: NONE USED); 88%, 72%, 18%, not significant (Carcinogen: 7,12-DIMETHYLBENZ[A]ANTHRACENE, 57-97-6, 2.5 PPM (AS SELENIUM) IN DIET BEGINNING 2 WK PRIOR TO CARCINOGEN DOSE AND CONTINUING FOR DURATION OF STUDY (STUDY DUR, Route [Inhibitor]: ORAL, Species: RAT, Strain/Sex: SPRAGUE-DAWLEY/FEMALE, Target Tissue: Type of Lesion: MAMMARY GLAND: ADENOCARCINOMA, Dose [Carcinogen]: 10 MG ONCE AT 55 D OF AGE, Promoter: NONE USED); 22/25 (88%), 17/25 (68%), 23%, not significant (Carcinogen: 7,12-DIMETHYLBENZ[A]ANTHRACENE, 57-97-6, 5 PPM (AS SELENIUM) IN DIET BEGINNING 1 WK POST CARCINOGEN DOSE AND CONTINUING FOR 25 WK (STUDY DURATION: 25 WK), Route [Inhibitor]: ORAL, Species: RAT, Strain/Sex: SPRAGUE-DAWLEY/FEMALE, Target Tissue: Type of Lesion: MAMMARY GLAND: ADENOCARCINOMA, Dose [Carcinogen]: 10 MG ONCE AT 55 D OF AGE, Promoter: NONE USED); 22/25 (88%), 15/25 (60%), 32%, p<0.05 (Carcinogen: 7,12-DIMETHYLBENZ[A]ANTHRACENE, 57-97-6, 5 PPM (AS SELENIUM) IN DIET BEGINNING 2 WK PRIOR TO CARCINOGEN DOSE AND CONTINUING FOR 1 WK POST CARCINOGEN DOSE (STU, Route [Inhibitor]: ORAL, Species: RAT, Strain/Sex: SPRAGUE-DAWLEY/FEMALE, Target Tissue: Type of Lesion: MAMMARY GLAND: ADENOCARCINOMA, Dose [Carcinogen]: 10 MG ONCE AT 55 D OF AGE, Promoter: NONE USED). Besides, the “tumour outcome (control, treated, inhibition, significance)” value was 88%, 52%, 41%, p<0.05 (Carcinogen: 7,12-DIMETHYLBENZ[A]ANTHRACENE, 57-97-6, 5 PPM (AS SELENIUM) IN DIET BEGINNING 2 WK PRIOR TO CARCINOGEN DOSE AND CONTINUING FOR DURATION OF STUDY (STUDY DURAT, Route [Inhibitor]: ORAL, Species: RAT, Strain/Sex: SPRAGUE-DAWLEY/FEMALE, Target Tissue: Type of Lesion: MAMMARY GLAND: ADENOCARCINOMA, Dose [Carcinogen]: 10 MG ONCE AT 55 D OF AGE, Promoter: NONE USED); 22/25 (88%), 14/25 (56%), 36%, p<0.05 (Carcinogen: 7,12-DIMETHYLBENZ[A]ANTHRACENE, 57-97-6, 10 PPM (AS SELENIUM) IN DIET BEGINNING 1 WK POST CARCINOGEN DOSE AND CONTINUING FOR 25 WK (STUDY DURATION: 25 WK), Route [Inhibitor]: ORAL, Species: RAT, Strain/Sex: SPRAGUE-DAWLEY/FEMALE, Target Tissue: Type of Lesion: MAMMARY GLAND: ADENOCARCINOMA, Dose [Carcinogen]: 10 MG ONCE AT 55 D OF AGE, Promoter: NONE USED); 22/25 (88%), 12/25 (48%), 45%, p<0.05 (Carcinogen: 7,12-DIMETHYLBENZ[A]ANTHRACENE, 57-97-6, 10 PPM (AS SELENIUM) IN DIET BEGINNING 2 WK PRIOR TO CARCINOGEN DOSE AND CONTINUING FOR 1 WK POST CARCINOGEN DOSE (ST, Route [Inhibitor]: ORAL, Species: RAT, Strain/Sex: SPRAGUE-DAWLEY/FEMALE, Target Tissue: Type of Lesion: MAMMARY GLAND: ADENOCARCINOMA, Dose [Carcinogen]: 10 MG ONCE AT 55 D OF AGE, Promoter: NONE USED); 88%, 40%, 55%, p<0.05 (Carcinogen: 7,12-DIMETHYLBENZ[A]ANTHRACENE, 57-97-6, 10 PPM (AS SELENIUM) IN DIET BEGINNING 2 WK PRIOR TO CARCINOGEN DOSE AND CONTINUING FOR DURATION OF STUDY (STUDY DURA, Route [Inhibitor]: ORAL, Species: RAT, Strain/Sex: SPRAGUE-DAWLEY/FEMALE, Target Tissue: Type of Lesion: MAMMARY GLAND: ADENOCARCINOMA, Dose [Carcinogen]: 10 MG ONCE AT 55 D OF AGE, Promoter: NONE USED); 22/25 (88%), 12/25 (48%), 45%, p<0.05 (Carcinogen: 7,12-DIMETHYLBENZ[A]ANTHRACENE, 57-97-6, 15 PPM (AS SELENIUM) IN DIET BEGINNING 1 WK POST CARCINOGEN DOSE AND CONTINUING FOR 25 WK (STUDY DURATION: 25 WK), Route [Inhibitor]: ORAL, Species: RAT, Strain/Sex: SPRAGUE-DAWLEY/FEMALE, Target Tissue: Type of Lesion: MAMMARY GLAND: ADENOCARCINOMA, Dose [Carcinogen]: 10 MG ONCE AT 55 D OF AGE, Promoter: NONE USED); 22/25 (88%), 6/25 (24%), 73%, p<0.05 (Carcinogen: 7,12-DIMETHYLBENZ[A]ANTHRACENE, 57-97-6, 15 PPM (AS SELENIUM) IN DIET BEGINNING 2 WK PRIOR TO CARCINOGEN DOSE AND CONTINUING FOR 1 WK POST CARCINOGEN DOSE (ST, Route [Inhibitor]: ORAL, Species: RAT, Strain/Sex: SPRAGUE-DAWLEY/FEMALE, Target Tissue: Type of Lesion: MAMMARY GLAND: ADENOCARCINOMA, Dose [Carcinogen]: 10 MG ONCE AT 55 D OF AGE, Promoter: NONE USED). Besides, the “tumour outcome (control, treated, inhibition, significance)” value runs as follows: (Carcinogen: 7,12-DIMETHYLBENZ[A]ANTHRACENE, 57-97-6, 80 PPM IN HIGH FAT DIET FOR 2 WK BEGINNING 1 WK PRIOR TO CARCINOGEN DOSE (STUDY DURATION: 17 WK), Route [Inhibitor]: ORAL, Species: RAT, Strain/Sex: SPRAGUE-DAWLEY/FEMALE, Target Tissue: Type of Lesion: MAMMARY GLAND: TUMOR, Dose [Carcinogen]: 5 MG IN 0.2 ML OLIVE OIL ONCE, Promoter: NONE USED) 22/25 (88%), 5/25 (20%), 77%, p<0.01; (Carcinogen: AZOXYMETHANE, 25843-45-2, 20 PPM IN HIGH-FAT DIET BEGINNING 2 WK PRIOR TO CARCINOGEN TREATMENT AND CONTINUING FOR 3 D POST CARCINOGEN TREATMENT, Route [Inhibitor]: ORAL, Species: RAT, Strain/Sex: F344/MALE, Target Tissue: Type of Lesion: COLON: ADENOCARCINOMA, Dose [Carcinogen]: 15 MG/KG BW/WK FOR 2 WK, Promoter: NONE USED) 80%, 63%, 21%, not significant; (Carcinogen: AZOXYMETHANE, 25843-45-2, 40 PPM IN HIGH-FAT DIET BEGINNING 2 WK PRIOR TO CARCINOGEN TREATMENT AND CONTINUING FOR 3 D POST CARCINOGEN TREATMENT, Route [Inhibitor]: ORAL, Species: RAT, Strain/Sex: F344/MALE, Target Tissue: Type of Lesion: COLON: ADENOCARCINOMA, Dose [Carcinogen]: 15 MG/KG BW/WK FOR 2 WK, Promoter: NONE USED) 80%, 50%, 38%, p<0.05; (Carcinogen: AZOXYMETHANE, 25843-45-2, 40 PPM IN HIGH-FAT DIET FOR DURATION OF STUDY BEGINNING 3 D POST CARCINOGEN TREATMENT (STUDY DURATION: 36 WK), Route [Inhibitor]: ORAL, Species: RAT, Strain/Sex: F344/MALE, Target Tissue: Type of Lesion: COLON: ADENOCARCINOMA, Dose [Carcinogen]: 15 MG/KG BW/WK FOR 2 WK, Promoter: NONE USED) 80%, 37%, 54%, p<0.05.
